Reference: patent US20230348426A1, “OXOPYRROLIDINE FPR2 AGONISTS” (Bristol-Myers Squibb Company, priority 2020, published 2023)
pEC50: −log10 of the molar value.

Legend:
human FPR1 = human FPR1 (Homo sapiens (Human), UniProt P21462); test: FPR1 cyclic adenosine monophosphate (cAMP) assay; format: cell-based; conditions: CHO cells overexpressing human FPR1; forskolin 10 µM; inhibition of cAMP production; read-out: hFPR1 cAMP EC50
Method in brief: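 CHO cells overexpressing human FPR1 (4,000 cells/well) stimulated with 10 µM forskolin plus 200 µM IBMX in the presence of compound (0.020 nM–100 µM, 1% DMSO), 30 min at room temperature. Intracellular cAMP measured by HTRF. Inhibition of cAMP production fitted to a 4-parameter logistic equation.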

human FPR2 = human FPR2 (Homo sapiens (Human), UniProt P25090); test: FPR2 cyclic adenosine monophosphate (cAMP) assay; format: cell-based; conditions: CHO cells overexpressing human FPR2; forskolin 5 µM; inhibition of cAMP production; read-out: hFPR2 cAMP2 EC50
human FPR2, sequence (P25090 whole entry): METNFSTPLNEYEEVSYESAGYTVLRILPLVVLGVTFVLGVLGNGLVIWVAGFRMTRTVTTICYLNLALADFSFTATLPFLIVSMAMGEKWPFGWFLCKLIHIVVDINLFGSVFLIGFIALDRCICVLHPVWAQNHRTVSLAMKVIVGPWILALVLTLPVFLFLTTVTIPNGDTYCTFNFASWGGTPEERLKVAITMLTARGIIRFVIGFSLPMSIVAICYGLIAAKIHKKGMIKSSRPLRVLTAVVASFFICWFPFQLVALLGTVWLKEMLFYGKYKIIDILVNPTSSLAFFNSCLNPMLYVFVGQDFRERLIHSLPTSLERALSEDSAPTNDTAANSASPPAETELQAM
Method in brief: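 CHO cells overexpressing human FPR2 (2,000/well) incubated 30 min at room temperature with compound (0.020 nM–100 µM, 1% DMSO), 5 µM forskolin and 200 µM IBMX.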

human FPR1, sequence (P21462 whole entry): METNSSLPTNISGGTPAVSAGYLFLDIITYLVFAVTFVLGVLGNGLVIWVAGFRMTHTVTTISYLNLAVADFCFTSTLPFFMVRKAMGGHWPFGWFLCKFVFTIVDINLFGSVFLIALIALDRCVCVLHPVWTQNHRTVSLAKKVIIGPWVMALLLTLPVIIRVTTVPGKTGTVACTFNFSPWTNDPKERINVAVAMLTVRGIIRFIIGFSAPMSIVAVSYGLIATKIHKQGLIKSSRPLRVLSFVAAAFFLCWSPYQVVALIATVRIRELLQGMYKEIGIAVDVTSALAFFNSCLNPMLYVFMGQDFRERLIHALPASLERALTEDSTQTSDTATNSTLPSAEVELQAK

COc1ccc([C@@H]2CN(c3c(C)ccn(CC4CC4)c3=O)C(=O)[C@H]2NC(=O)c2ccc(OC(F)F)cc2)c(F)c1 [Example 192]
pEC50 (human FPR1): 9.10
pEC50 (human FPR2): 8.29

COc1cc(F)c([C@@H]2CN(c3cccn(C)c3=O)C(=O)[C@H]2NC(=O)c2ccc(Cl)cc2)c(F)c1 [Example 193]
pEC50 (human FPR1): 6.24
pEC50 (human FPR2): 8.29

COCC(CN)n1cccc(N2C[C@@H](c3c(F)cc(OC)cc3F)[C@H](NC(=O)c3ccc(OC(F)(F)F)cc3)C2=O)c1=O (some centres unmarked) [Example 194]
pEC50 (human FPR1): 6.82
pEC50 (human FPR2): 8.29

COc1cc(F)c([C@@H]2CN(c3c(C)ccn(CC4CC4)c3=O)C(=O)[C@H]2NC(=O)c2ccc(OC(F)F)cc2)c(F)c1 [Example 195]
pEC50 (human FPR1): 8.89
pEC50 (human FPR2): 8.28

COc1cc(F)c([C@@H]2CN(c3c(Cl)ccn(C)c3=O)C(=O)[C@H]2NC(=O)c2ccc(Cl)cc2)c(F)c1 [Example 196]
pEC50 (human FPR1): 6.80
pEC50 (human FPR2): 8.28

CCn1ccc(C)c(N2C[C@@H](c3c(F)cc(OC)cc3F)[C@H](NC(=O)c3ccc(OC(F)F)cc3)C2=O)c1=O [Example 197]
pEC50 (human FPR1): 8.77
pEC50 (human FPR2): 8.28

COc1cc(F)c([C@@H]2CN(c3nc(N4CCC(O)C4=O)ccc3F)C(=O)[C@H]2NC(=O)c2ccc(OC(F)F)cc2)c(F)c1 (some centres unmarked) [Example 199]
pEC50 (human FPR1): 6.89
pEC50 (human FPR2): 8.28

COCCn1cccc(N2C(=O)[C@@H](NC(=O)c3ccc(OC(F)(F)F)cc3)[C@H](c3c(F)cc(OC)cc3F)[C@H]2C)c1=O [Example 200]
pEC50 (human FPR1): 6.54
pEC50 (human FPR2): 8.28

COc1cc(F)c([C@@H]2CN(c3cccn(C4CCOC4)c3=O)C(=O)[C@H]2NC(=O)c2ccc(OC(F)F)cc2)c(F)c1 (some centres unmarked) [Example 201]
pEC50 (human FPR1): 7.74
pEC50 (human FPR2): 8.28

COc1cc(F)c([C@@H]2CN(c3cccnc3OCCN3CC4(COC4)C3)C(=O)[C@H]2NC(=O)c2ccc(OC(F)F)cc2)c(F)c1 [Example 202]
pEC50 (human FPR1): 7.21
pEC50 (human FPR2): 8.28

COc1cc(F)c([C@@H]2CN(c3nc(C(F)(F)F)ccc3C)C(=O)[C@H]2NC(=O)c2ccc(OC(F)F)cc2)c(F)c1 [Example 204]
pEC50 (human FPR1): 6.28
pEC50 (human FPR2): 8.28

CCn1cc(F)cc(N2C[C@@H](c3c(F)cc(OC)cc3F)[C@H](NC(=O)c3ccc(OC(F)F)cc3)C2=O)c1=O [Example 205]
pEC50 (human FPR1): 6.66
pEC50 (human FPR2): 8.27

COc1cc(F)c([C@@H]2CN(c3nc(NC(C)=O)ccc3F)C(=O)[C@H]2NC(=O)c2ccc(OC(F)(F)F)cc2)c(F)c1 [Example 206]
pEC50 (human FPR1): 7.62
pEC50 (human FPR2): 8.27

COCCn1ccc(C)c(N2C[C@@H](c3ccc(OC)cc3F)[C@H](NC(=O)c3ccc(OC(F)F)cc3)C2=O)c1=O [Example 208]
pEC50 (human FPR1): 8.85
pEC50 (human FPR2): 8.27

COc1cc(F)c([C@@H]2CN(c3nc(N4CC5(COC5)C4)ccc3F)C(=O)[C@H]2NC(=O)c2ccc(OC(F)F)cc2)c(F)c1 [Example 209]
pEC50 (human FPR1): 6.89
pEC50 (human FPR2): 8.26

COc1cc(F)c([C@@H]2CN(c3cccn(CCN4CC5(COC5)C4)c3=O)C(=O)[C@H]2NC(=O)c2ccc(OC(F)(F)F)cc2)c(F)c1 [Example 210]
pEC50 (human FPR1): 6.72
pEC50 (human FPR2): 8.26

COc1cc(F)c([C@@H]2CN(c3cccc(N4C[C@H]5C[C@@H]4CO5)n3)C(=O)[C@H]2NC(=O)c2ccc(OC(F)F)cc2)c(F)c1 [Example 211]
pEC50 (human FPR1): 7.60
pEC50 (human FPR2): 8.26

COc1cc(F)c([C@@H]2CN(c3nc(C(F)(F)F)ccc3N3CC[C@H](O)C3)C(=O)[C@H]2NC(=O)c2ccc(Cl)cc2)c(F)c1 [Example 212]
pEC50 (human FPR1): 7.00
pEC50 (human FPR2): 8.25

COc1cc(F)c([C@@H]2CN(c3cccc(N4C[C@@H](C)N(C)[C@@H](C)C4)n3)C(=O)[C@@H]2NC(=O)c2ccc(OC(F)F)cc2)c(F)c1 [Example 213]
pEC50 (human FPR1): 5.74
pEC50 (human FPR2): 8.25

COc1cc(N2C[C@@H](C)N(C)[C@@H](C)C2)nc(N2C[C@@H](c3c(F)cc(OC)cc3F)[C@H](NC(=O)c3ccc(OC(F)F)cc3)C2=O)c1 [Example 214]
pEC50 (human FPR1): 5.62
pEC50 (human FPR2): 8.25

CCn1cccc(N2C[C@@H](c3c(F)cc(OC)cc3F)[C@H](NC(=O)c3ccc(C)cc3)C2=O)c1=O [Example 215]
pEC50 (human FPR1): 7.39
pEC50 (human FPR2): 8.25

COc1cc(F)c([C@@H]2CN(c3nc(N4CC(C)OCC4=O)ccc3F)C(=O)[C@H]2NC(=O)c2ccc(OC(F)F)cc2)c(F)c1 (some centres unmarked) [Example 216]
pEC50 (human FPR1): 6.57
pEC50 (human FPR2): 8.24

COCC(CO)n1cccc(N2C(=O)[C@@H](NC(=O)c3ccc(OC(F)F)cc3)[C@H](c3c(F)cc(OC)cc3F)[C@@H]2C)c1=O (some centres unmarked) [Example 217]
pEC50 (human FPR1): 7.38
pEC50 (human FPR2): 8.24

COc1cc(F)c([C@@H]2CN(c3cccn(CC(C)(CO)CO)c3=O)C(=O)[C@H]2NC(=O)c2ccc(OC(F)F)cc2)c(F)c1 [Example 218]
pEC50 (human FPR1): 6.85
pEC50 (human FPR2): 8.24

COc1cc(F)c([C@@H]2CN(c3cccn(CCO)c3=O)C(=O)[C@H]2NC(=O)c2ccc(OC(F)F)cc2)c(F)c1 [Example 219]
pEC50 (human FPR1): 6.85
pEC50 (human FPR2): 8.24

COCCn1cccc(N2C(=O)[C@@H](NC(=O)c3ccc(Cl)cc3)[C@H](c3c(F)cc(OC)cc3F)[C@H]2C)c1=O [Example 220]
pEC50 (human FPR1): 6.00
pEC50 (human FPR2): 8.24

COc1cc(F)c([C@@H]2CN(c3cccn(CCF)c3=O)C(=O)[C@H]2NC(=O)c2ccc(OC(F)(F)F)cc2)c(F)c1 [Example 221]
pEC50 (human FPR1): 7.30
pEC50 (human FPR2): 8.22

COc1cc(F)c([C@@H]2CN(c3nc(N4CC5(COC5)C4)ccc3OC)C(=O)[C@H]2NC(=O)c2ccc(OC(F)F)cc2)c(F)c1 [Example 223]
pEC50 (human FPR1): 7.00
pEC50 (human FPR2): 8.21

COc1cc(F)c([C@@H]2CN(c3nccc(N4CCN(S(C)(=O)=O)CC4)c3C(F)(F)F)C(=O)[C@H]2NC(=O)c2ccc(Cl)cc2)c(F)c1 [Example 224]
pEC50 (human FPR1): 5.72
pEC50 (human FPR2): 8.21

COc1cc(F)c([C@@H]2CN(c3nc(N4C[C@@H](C)N(C)[C@@H](C)C4)ccc3OC)C(=O)[C@H]2NC(=O)c2ccc(OC(F)F)cc2)c(F)c1 [Example 225]
pEC50 (human FPR1): 6.20
pEC50 (human FPR2): 8.21

CCn1cccc(N2C[C@@H](c3ccc(OC)cc3F)[C@H](NC(=O)c3ccc(OC(F)F)cc3)C2=O)c1=O [Example 226]
pEC50 (human FPR1): 7.64
pEC50 (human FPR2): 8.21

COc1cc(F)c([C@@H]2CN(c3ccc(CO)n(C)c3=O)C(=O)[C@H]2NC(=O)c2ccc(OC(F)(F)F)cc2)c(F)c1 [Example 227]
pEC50 (human FPR1): 6.62
pEC50 (human FPR2): 8.21

CCn1ccc(C)c(N2C[C@@H](c3c(F)cc(OC)cc3F)[C@H](NC(=O)c3ccc(OC(F)(F)F)cc3)C2=O)c1=O [Example 228]
pEC50 (human FPR1): 8.92
pEC50 (human FPR2): 8.21

CCn1cc(F)cc(N2C[C@@H](c3c(F)cc(OC)cc3F)[C@H](NC(=O)c3ccc(OC(F)(F)F)cc3)C2=O)c1=O [Example 230]
pEC50 (human FPR1): 7.06
pEC50 (human FPR2): 8.21

COCCn1ccc(C)c(N2C[C@@H](c3c(F)cc(OC)cc3F)[C@H](NC(=O)c3ccc(OC(F)F)cc3)C2=O)c1=O [Example 232]
pEC50 (human FPR1): 8.49
pEC50 (human FPR2): 8.20

COc1cc(N2CCN(C)CC2)nc(N2C[C@@H](c3c(F)cc(OC)cc3F)[C@H](NC(=O)c3ccc(Cl)cc3)C2=O)c1 [Example 233]
pEC50 (human FPR1): < 5.30
pEC50 (human FPR2): 8.20

COc1cc(F)c([C@@H]2CN(c3nccc(NCC(C)O)c3C(F)(F)F)C(=O)[C@H]2NC(=O)c2ccc(OC(F)F)cc2)c(F)c1 (some centres unmarked) [Example 234]
pEC50 (human FPR1): 5.96
pEC50 (human FPR2): 8.20
